From patent US8309319B2, “Fluorescent probe for measurement of UDP-glucuronosyltransferase” (The University of Tokyo, priority 2007, dated 2012)

Legend:
UGT1A1 [1] = molecular target: T1, UGT1A1 (Homo sapiens, UniProt P22309); assay: Reactivity of fluorescence increasing (d-PeT) type probes with UGT1A1; format: biochemical; parameters: host or cells: microsomes expressing UGT1A1; details: FIG. 4
T1 sequence (P22309 26-533): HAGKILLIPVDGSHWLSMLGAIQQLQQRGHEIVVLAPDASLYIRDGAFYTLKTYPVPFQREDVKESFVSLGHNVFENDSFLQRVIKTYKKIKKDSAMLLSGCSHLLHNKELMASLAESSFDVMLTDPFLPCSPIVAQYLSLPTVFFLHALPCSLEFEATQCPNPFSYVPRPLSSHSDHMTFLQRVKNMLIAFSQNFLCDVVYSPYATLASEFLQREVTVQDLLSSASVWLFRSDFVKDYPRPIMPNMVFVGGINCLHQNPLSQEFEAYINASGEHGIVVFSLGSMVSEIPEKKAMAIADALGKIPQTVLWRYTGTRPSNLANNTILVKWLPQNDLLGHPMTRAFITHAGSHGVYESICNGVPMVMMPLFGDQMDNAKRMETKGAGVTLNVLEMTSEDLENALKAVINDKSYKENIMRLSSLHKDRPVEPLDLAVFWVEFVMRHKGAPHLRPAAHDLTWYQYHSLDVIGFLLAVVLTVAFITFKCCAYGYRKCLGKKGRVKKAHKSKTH
Description: The fluorescein derivatives of fluorescence decreasing type, of which fluorescence is decreased by a reaction with UGT, were obtained in Examples 1 and 2. Further researches were conducted in order to provide fluorescein derivatives of fluorescence increasing type of which fluorescence is increased by a reaction with UGT. Functionally, the structure of fluorescein can be recognized as two parts having different functions, i.e. the benzene ring moiety and the xanthene ring moiety. By appropriately choosing substituents on the benzene ring moiety among them, fluorescence thereof can be controlled by using PeT (J. Am. Chem. Soc., 123, pp. 2530-2536, 2001). […] Therefore, it is considered that there can be developed a fluorescence increasing type fluorescein derivative of which fluorescence is quenched by PeT before the reaction with UGT when the fluorescein derivative is a phenolate type, and fluorescence is emitted after the reaction with UGT when the fluorescein derivative is an O-glycoside type, by appropriately choosing the substituents on the benzene ring moiety (J. Am. Chem. Soc., 126, pp. 14079-14085, 2004). From such a point of view, 6-carboxyfluorescein dimethyl ester and 5,6-dicarboxyfluorescein trimethyl ester were designed as fluorescence increasing (d-PeT) type fluorescein derivatives, and reactivity thereof with UGT1A1 was confirmed.

UGT1A1 [2] = molecular target: T1, UGT1A1; assay: Reactivity with UGT1A1, fluorescence method (decrease in fluorescence intensity); details: 37° C.
UGT1A1 [3] = molecular target: T1, UGT1A1; assay: Reactivity with UGT1A1, absorbance method (decrease of absorbance); format: biochemical; parameters: host or cells: microsomes expressing UGT1A1; details: probe 10 μM, absorbance at 480 to 510 nm; compared with 2-Me-4-OMe-TG
[4] = probe 1 μM, excitation 480 to 510 nm

Compound: COC(=O)c1cc(C(=O)OC)c(-c2c3ccc(=O)cc-3oc3cc(O)ccc23)cc1C(=O)OC [5,6-dicarboxyfluorescein trimethyl ester]
- change of fluorescence intensity with passage of the reaction time (UGT1A1 [1]): increase of fluorescence intensity was observed

Compound: Nc1ccccc1-c1c2ccc(=O)cc-2oc2cc(O)ccc12 [Derivative 6]
- reactivity with UGT1A1 (UGT1A1 [2]; UGT1A1 microsomes 0.1 mg/mL, UDP-glucuronic acid 2 mM, probe 1 μM (fluorescence) or 10 μM (absorbance)): weak

Compound: COC(=O)c1ccc(C(=O)OC)c(-c2c3ccc(=O)cc-3oc3cc(O)ccc23)c1 [6-carboxyfluorescein dimethyl ester]
- change of fluorescence intensity with passage of the reaction time (UGT1A1 [1]): increase of fluorescence intensity was observed

Compound: COc1ccc(-c2c3ccc(=O)cc-3oc3cc(O)ccc23)c(C)c1 [Derivative 11]
- decrease of fluorescence intensity to (UGT1A1 [2]; [4]): ≤ 0.1%
- decrease rate of fluorescence (UGT1A1 [2]; [4]): high decrease rate of fluorescence

Compound: Cc1ccc(-c2c3ccc(=O)cc-3oc3cc(O)ccc23)c([N+](=O)[O-])c1 [Derivative 15]
- decrease rate of absorbance (UGT1A1 [3]): higher decrease rate of absorbance
